Structures are written as SMILES.

T1 sequence (P08254 100-272 limits assumed): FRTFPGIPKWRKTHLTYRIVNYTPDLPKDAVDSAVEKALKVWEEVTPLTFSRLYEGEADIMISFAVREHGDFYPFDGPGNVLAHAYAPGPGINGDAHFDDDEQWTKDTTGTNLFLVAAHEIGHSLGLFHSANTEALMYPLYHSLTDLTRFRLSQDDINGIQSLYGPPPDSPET

The first experiment has as its target T1, stromelysin (Homo sapiens, UniProt P08254).
T1 construct: made in house; host or cells: E. coli
The experiment in a line: Determination of stromelysin inhibition (thiopeptide ester substrate cleavage, DTNB, microtiter plate). Format: biochemical.
Details: not given
Here is the method: The efficacy of the compounds of this invention as matrix metalloproteinase inhibitors was determined by measuring the inhibition of stromelysin. The inhibition of stromelysin by the compounds of this invention was determined as follows: Recombinant truncated stromelysin (human sequence) produced in E. coli was prepared by expression and purification of the protein as described by Ye et al., Biochemistry, 1992, 31, 11231-11235. The enzyme was assayed by its cleavage of the thiopeptide ester substrate Ac-Pro-Leu-Gly-[2-mercapto-4-methyl-pentanoyl]-Leu-Gly-OEt described by Weingarten and Feder, Anal. Biochem., 1985, 147, 437-440 (1985), as a substrate of vertebrate collagenase. The reported conditions were modified to allow assays to be carried out in a microtiter plate. Upon hydrolysis of the thioester bond, the released thiol group reacts rapidly with 5,5'-dithio-bis(2-nitrobenzoic acid) (DTNB), producing a yellow color which is measured by a microtiter plate reader set at 405 nm. The rates of cleavage of the substrate by stromelysin in the presence or absence of inhibitors are measured in a 30 min assay at ambient temperature. Solutions of the compounds in DMSO are prepared, and these are diluted at various concentrations into the assay buffer (50 mM MES/NaOH pH 6.5 with 10 mM CaCl2 and 0.2% Pluronic F-68), which is also used for dilution of the enzyme and substrate. The potency of the compounds [IC50 ] are calculated from the inhibition/inhibitor concentration data.
`CC(C)C[C@@H](C(=O)N[C@H](Cc1ccccc1)C(=O)c1c[nH]c2ccccc12)[C@H](O)C(=O)NO` [Example 13] showed an IC50 of 99 nM. The compound `C=CC[C@H](C(=O)NO)[C@@H](CC(C)C)C(=O)NC(Cc1ccccc1)C(=O)c1cccnc1` (stereo partly drawn) [Example 22] gave an IC50 of 10 nM. As to `C=CC[C@H](C(=O)NO)[C@@H](CC(C)C)C(=O)NC(Cc1ccccc1)C(=O)c1nccs1` (stereo partly drawn) [Example 26], the IC50 came to 220 nM.

The experiment is the same for the next values; noted with them: recombinant truncated stromelysin (human sequence); thiopeptide ester substrate, pH 6.5, 30 min, ambient temperature; read-out: IC50 (Inhibitory Potencies against Stromelysin).
In the case of `CC(C)C[C@@H](C(=O)N[C@@H](Cc1ccccc1)C(=O)c1c[nH]c2ccccc12)[C@H](O)C(=O)NO` [Example 12], the IC50 was 7.8 nM. Same read-out and setting: the figure for `CON=C(c1c[nH]c2ccccc12)[C@H](Cc1ccccc1)NC(=O)[C@@H](CC(=O)NO)CC(C)C` [Example 30] is 320 nM. For `CC(C)C[C@H](CC(=O)NO)C(=O)N[C@@H](Cc1ccccc1)C(=O)c1c[nH]c2ccccc12` [Example 5], the IC50 was 5.6 nM. As for `O=C(c1c[nH]c2ccccc12)[C@H](Cc1ccccc1)NC(=O)[C@H](CCCc1ccccc1)[C@H](O)C(=O)NO` [Example 27], the IC50 stood at 2.7 nM. Regarding `C=CC[C@H](C(=O)NO)[C@@H](CC(C)C)C(=O)N[C@@H](Cc1ccccc1)C(C)=O` [Example 17], the IC50 was 16 nM. As for `CC(C)C[C@@H](C(=O)N[C@@H](Cc1ccccc1)C(=O)c1c[nH]c2ccccc12)[C@H](O)C(=O)O` [Example 10], the IC50 is 7100 nM. As to `CC(C)C[C@H](CC(=O)NO)C(=O)N[C@@H](CC(=O)O)C(=O)c1c[nH]c2ccccc12` [Example 31], the IC50 stood at 740 nM.

As to `C=CC[C@H](C(=O)NO)[C@@H](CC(C)C)C(=O)N[C@@H](Cc1ccccc1)C(=O)c1ccc[nH]1` [Example 21], the IC50 came out at 1.7 nM. Turning to `O=C(C[C@H](C(=O)N[C@@H](Cc1ccc(O)cc1)C(=O)c1ccccc1)C1CCCCC1)NO` [Example 33], the IC50 was found to be 110 nM.

For `C=CCCC[C@H](C(=O)NO)[C@@H](CC(C)C)C(=O)N[C@@H](Cc1ccccc1)C(=O)c1c[nH]c2ccccc12` [Example 2], the IC50 is 3.6 nM. `CC(C)C[C@@H](C(=O)N[C@H](Cc1ccccc1)C(=O)c1c[nH]c2ccccc12)[C@H](O)C(=O)O` [Example 11]: the IC50 is 93000 nM. Consider `C=CC[C@H](C(=O)NO)[C@@H](CC(C)C)C(=O)N[C@@H](Cc1ccccc1)C(=O)c1ccccc1` [Example 18], for which the IC50 worked out at 4.5 nM. Still for that read-out and setting: then `C=CCCC[C@H](C(=O)O)[C@@H](CCCc1ccc(C)cc1)C(=O)N[C@@H](Cc1ccccc1)C(=O)c1c[nH]c2ccccc12` [Example 7], with 8 nM. In the case of `C=CCCC[C@H](C(=O)NO)[C@@H](CCCc1ccc(C)cc1)C(=O)N[C@@H](Cc1ccccc1)C(=O)c1c[nH]c2ccccc12` [Example 8], the IC50 was determined as 8.6 nM. Still for that read-out and setting: then `Cc1ccc(CCC[C@H](CC(=O)NO)C(=O)N[C@@H](Cc2ccccc2)C(=O)c2c[nH]c3ccccc23)cc1` [Example 6], with 12 nM; and `CC(C)C[C@@H](C(=O)N[C@H](C(=O)c1c[nH]c2ccccc12)C(C)(C)C)[C@H](O)C(=O)NO` [Example 14], with 1.2 nM. Consider `C=CC[C@H](C(=O)NO)[C@@H](CC(C)C)C(=O)N[C@H](C(=O)c1c[nH]c2ccccc12)C(C)(C)C` [Example 9], for which the IC50 was 1.2 nM. Consider `C=CCCC[C@H](C(=O)NO)[C@@H](CC(C)C)C(=O)N[C@@H](Cc1ccc(O)cc1)C(=O)c1ccccc1` [Example 19], for which the IC50 amounted to 1.5 nM.

Regarding `C=CC[C@H](C(=O)NO)[C@@H](CC(C)C)C(=O)N[C@@H](CC1CCCCC1)C(=O)c1ccccc1` [Example 20], the IC50 was determined as 7.3 nM. As to `O=C(c1c[nH]c2ccccc12)[C@H](Cc1ccccc1)NC(=O)[C@@H](CCCc1ccccc1)[C@H](O)C(=O)NO` [Example 28], the IC50 was 320 nM.

`CC(C)C[C@@H](C(=O)N[C@@H](Cc1ccccc1)C(=O)c1ccccc1)[C@H](O)C(=O)NO` [Example 15]: the IC50 worked out at 27 nM.

For the origin of these results see patent US5985911A, “C-terminal ketone inhibitors of matrix metalloproteinases and TNFα secretion” (Abbott Laboratories, priority 1997, dated 1999).
